As a reminder, the EC50 is the concentration that produces a half-maximal response.

Non-standard residues stand in square brackets, D forms with d. Residues, ends and D or L forms follow the SMILES beside them. No end group written: not given here. 1Nal = N[C@@H](Cc1cccc2ccccc12)C(=O)O; 2Nal = N[C@@H](Cc1ccc2ccccc2c1)C(=O)O; β3hI = CC[C@H](C)[C@H](N)CC(=O)O; β3hF = N[C@H](CC(=O)O)Cc1ccccc1; hSer = N[C@@H](CCO)C(=O)O; Nle = CCCC[C@H](N)C(=O)O; β3hA = C[C@H](N)CC(=O)O; Aib = CC(C)(N)C(=O)O; βAla = NCCC(=O)O

Test [1] addresses T1, human PTH-1 receptor (Homo sapiens, UniProt Q03431).
T1 construct: expressed in transfected cells; host or cells: HEK-293
T1 sequence (Q03431 27-593): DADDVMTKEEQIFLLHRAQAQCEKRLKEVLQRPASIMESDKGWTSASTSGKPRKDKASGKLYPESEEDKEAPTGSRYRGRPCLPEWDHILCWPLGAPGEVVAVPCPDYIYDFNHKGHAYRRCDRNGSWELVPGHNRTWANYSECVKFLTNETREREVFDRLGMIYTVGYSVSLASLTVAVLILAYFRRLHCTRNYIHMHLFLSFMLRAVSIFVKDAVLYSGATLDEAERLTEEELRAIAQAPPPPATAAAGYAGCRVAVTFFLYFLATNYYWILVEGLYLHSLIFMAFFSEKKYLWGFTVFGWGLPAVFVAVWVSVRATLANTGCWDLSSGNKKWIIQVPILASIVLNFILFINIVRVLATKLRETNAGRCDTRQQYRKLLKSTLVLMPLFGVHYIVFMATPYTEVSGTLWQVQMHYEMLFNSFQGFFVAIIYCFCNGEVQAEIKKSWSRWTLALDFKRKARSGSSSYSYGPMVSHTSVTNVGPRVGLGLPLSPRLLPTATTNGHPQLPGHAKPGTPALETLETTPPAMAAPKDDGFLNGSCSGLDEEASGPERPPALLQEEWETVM
The test can be described thus: Reporter gene assay (CRE-luciferase) for agonist activity in transiently transfected HEK-293 cells. It is filed as cell-based. The conditions noted are these: for hPTHR-2/hPTHR-1: selectivity for hPTH-1 receptor over hPTH-2 receptor. Summed up:
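Selectivity came from luciferase transcriptional reporter assays expressing human PTH-2 receptor. PTH-1 agonism used transiently transfected HEK-293 cells carrying SV40-promoter receptor and cAMP-responsive-element luciferase; 4-5 h compound exposure, lysis, luminescence, non-linear-regression EC50/efficacy; ≥3 independent runs, PTH (1-34) control each.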
For orientation: Reporter assays use an easily measured gene product as a stand-in for the process of interest.

Test [2] concerns the target human parathyroid hormone receptor 1 (human, UniProt Q03431). Put plainly: cell-based or functional assay.
The target in test [3] is human parathyroid hormone receptor 2 (human, UniProt P49190). Put plainly: cell-based or functional assay.

In turn, `CCCC[C@H](NC(=O)[C@H](CC(C)C)NC(=O)[C@H](CCC(N)=O)NC(=O)[C@@H](NC(=O)[C@H](CCC(=O)O)NC(=O)[C@H](CO)NC(=O)[C@@H](NC(=O)C(C)(C)N)C(C)C)[C@@H](C)CC)C(=O)N[C@@H](Cc1c[nH]cn1)C(=O)N[C@@H](CC(N)=O)C(=O)N[C@@H](CC(C)C)C(=O)NCC(=O)N[C@@H](CCCCN)C(=O)N[C@@H](Cc1c[nH]cn1)C(=O)N[C@@H](CC(C)C)C(=O)N[C@@H](CC(N)=O)C(=O)NCCC(=O)N[C@@H](CCOC)C(=O)N[C@@H](CCC(=O)O)C(=O)N[C@@H](CCCNC(=N)N)C(=O)N[C@H](C(=O)N[C@@H](CCC(=O)O)C(=O)N[C@@H](Cc1cccc2ccccc12)C(=O)N[C@@H](CC(C)C)C(=O)N[C@@H](CCCNC(=N)N)C(=O)N[C@@H](CCCCN)C(=O)N[C@@H](CC(C)C)C(=O)N[C@@H](CC(C)C)C(=O)N[C@@H](CCC(N)=O)C(=O)N[C@@H](CC(=O)O)C(=O)N[C@H](C(=O)N[C@@H](Cc1c[nH]cn1)C(=O)N[C@@H](CC(N)=O)C(=O)N[C@@H](Cc1ccccc1)C(N)=O)C(C)C)C(C)C` [SEQ ID NO: 3, [Aib^1, Nle^8, β-Ala^17, hSer(OMe)^18,1-Nal^23, Leu^27] hPTH (1-34)-NH2] (H-[Aib]VSEIQL[Nle]HNLGKHLN[βAla][hSer](Me)ERVE[1Nal]LRKLLQDVHNF-NH2; N-terminus assumed) yielded an EC50 in test [1] of 0.06 nM. Further, the “selectivity for the hPTH-1 receptor over the hPTH-2 receptor” value in test [1] (Table 3) was 766 fold. The hPTHR-2/hPTHR-1 in test [1] (Table 3, ratio of EC50 values) worked out at 766.

For `CCCC[C@H](NC(=O)[C@H](CC(C)C)NC(=O)[C@H](CCC(N)=O)NC(=O)[C@@H](NC(=O)[C@H](CCC(=O)O)NC(=O)[C@H](CO)NC(=O)[C@@H](NC(=O)[C@@H](N)CO)C(C)C)[C@@H](C)CC)C(=O)N[C@@H](Cc1c[nH]cn1)C(=O)N[C@@H](CC(N)=O)C(=O)N[C@@H](CC(C)C)C(=O)NCC(=O)N[C@@H](CCCCN)C(=O)N[C@@H](Cc1c[nH]cn1)C(=O)N[C@@H](CC(C)C)C(=O)N[C@@H](CCCCN)C(=O)N[C@@H](CO)C(=O)N[C@H](CC(=O)N[C@@H](CCC(=O)O)C(=O)N[C@@H](CCCNC(=N)N)C(=O)N[C@H](C(=O)N[C@@H](CCC(=O)O)C(=O)N[C@@H](Cc1cccc2ccccc12)C(=O)N[C@@H](CC(C)C)C(=O)N[C@@H](CCCNC(=N)N)C(=O)N[C@@H](CCCCN)C(=O)N[C@@H](CC(C)C)C(=O)N[C@@H](CC(C)C)C(=O)N[C@@H](CCC(N)=O)C(=O)N[C@@H](CC(=O)O)C(=O)N[C@H](C(=O)N[C@@H](Cc1c[nH]cn1)C(=O)N[C@@H](CC(N)=O)C(=O)N[C@@H](Cc1ccccc1)C(N)=O)C(C)C)C(C)C)[C@@H](C)CC` [SEQ ID NO: 34, [Nle^8, Lys^16, β-hIle^18,1-Nal^23, Leu^27] hPTH (1-34)-NH2] (H-SVSEIQL[Nle]HNLGKHLKS[β3hI]ERVE[1Nal]LRKLLQDVHNF-NH2; N-terminus assumed), the response in test [1] was half-maximal at 0.08 nM (EC50). Besides, in test [1] (Table 3, ratio of EC50 values), the hPTHR-2/hPTHR-1 is recorded as 373.

`CCCC[C@H](NC(=O)[C@H](CC(C)C)NC(=O)[C@H](CCC(N)=O)NC(=O)[C@@H](NC(=O)[C@H](CCC(=O)O)NC(=O)[C@H](CO)NC(=O)[C@@H](NC(=O)C(C)(C)N)C(C)C)[C@@H](C)CC)C(=O)N[C@@H](Cc1c[nH]cn1)C(=O)N[C@@H](CC(N)=O)C(=O)N[C@@H](CC(C)C)C(=O)NCC(=O)N[C@@H](CCCCN)C(=O)N[C@@H](Cc1c[nH]cn1)C(=O)N[C@@H](CC(C)C)C(=O)N[C@@H](CC(N)=O)C(=O)N[C@H](CC(=O)N[C@@H](CCOC)C(=O)N[C@@H](CCC(=O)O)C(=O)N[C@@H](CCCNC(=N)N)C(=O)N[C@H](C(=O)N[C@@H](CCC(=O)O)C(=O)N[C@@H](Cc1cccc2ccccc12)C(=O)N[C@@H](CC(C)C)C(=O)N[C@@H](CCCNC(=N)N)C(=O)N[C@@H](CCCCN)C(=O)N[C@@H](CC(C)C)C(=O)N[C@@H](CC(C)C)C(=O)N[C@@H](CCC(N)=O)C(=O)N[C@@H](CC(=O)O)C(=O)N[C@H](C(=O)N[C@@H](Cc1c[nH]cn1)C(=O)N[C@@H](CC(N)=O)C(=O)N[C@@H](Cc1ccccc1)C(N)=O)C(C)C)C(C)C)Cc1ccccc1` [SEQ ID NO: 48, [Aib^1, Nle^8, β-hPhe^17, hSer(OMe)^18,1-Nal^23, Leu^27] hPTH-(1-34)-NH2] (H-[Aib]VSEIQL[Nle]HNLGKHLN[β3hF][hSer](Me)ERVE[1Nal]LRKLLQDVHNF-NH2) showed an EC50 in test [1] of 0.1 nM. Besides, the hPTHR-2/hPTHR-1 in test [1] (Table 3, ratio of EC50 values) worked out at 1152.

In the case of `CCCC[C@H](NC(=O)[C@H](CC(C)C)NC(=O)[C@H](CCC(N)=O)NC(=O)[C@@H](NC(=O)[C@H](CCC(=O)O)NC(=O)[C@H](CO)NC(=O)[C@@H](NC(=O)[C@@H](N)CO)C(C)C)[C@@H](C)CC)C(=O)N[C@@H](Cc1c[nH]cn1)C(=O)N[C@@H](CC(N)=O)C(=O)N[C@@H](CC(C)C)C(=O)NCC(=O)N[C@@H](CCCCN)C(=O)N[C@@H](Cc1c[nH]cn1)C(=O)N[C@@H](CC(C)C)C(=O)N[C@@H](CC(N)=O)C(=O)N[C@@H](CO)C(=O)N[C@H](CC(=O)N[C@@H](CCC(=O)O)C(=O)N[C@@H](CCCNC(=N)N)C(=O)N[C@H](C(=O)N[C@@H](CCC(=O)O)C(=O)N[C@@H](Cc1cccc2ccccc12)C(=O)N[C@@H](CC(C)C)C(=O)N[C@@H](CCCNC(=N)N)C(=O)N[C@@H](CCCCN)C(=O)N[C@@H](CC(C)C)C(=O)N[C@@H](CC(C)C)C(=O)N[C@@H](CCC(N)=O)C(=O)N[C@@H](CO)C(=O)N[C@H](C(=O)N[C@@H](Cc1c[nH]cn1)C(=O)N[C@@H](CC(N)=O)C(=O)N[C@@H](Cc1ccccc1)C(N)=O)C(C)C)C(C)C)[C@@H](C)CC` [SEQ ID NO: 26, [Nle^8, β-hIle^18,1-Nal^23, Leu^27, Ser^30] hPTH (1-34)-NH2] (H-SVSEIQL[Nle]HNLGKHLNS[β3hI]ERVE[1Nal]LRKLLQSVHNF-NH2), the EC50 in test [1] worked out at 0.19 nM. Besides, the hPTHR-2/hPTHR-1 in test [1] (Table 3, ratio of EC50 values) is recorded as 98.

In the case of `CCCC[C@H](NC(=O)[C@H](CC(C)C)NC(=O)[C@H](CCC(N)=O)NC(=O)[C@@H](NC(=O)[C@H](CCC(=O)O)NC(=O)[C@H](CO)NC(=O)[C@@H](NC(=O)[C@@H](N)CO)C(C)C)[C@@H](C)CC)C(=O)N[C@@H](Cc1c[nH]cn1)C(=O)N[C@@H](CC(N)=O)C(=O)N[C@@H](CC(C)C)C(=O)NCC(=O)N[C@@H](CCCCN)C(=O)N[C@@H](Cc1c[nH]cn1)C(=O)N[C@@H](CC(C)C)C(=O)N[C@@H](CC(N)=O)C(=O)N[C@@H](CO)C(=O)N[C@@H](C)CC(=O)N[C@@H](CCC(=O)O)C(=O)N[C@@H](CCCNC(=N)N)C(=O)N[C@H](C(=O)N[C@@H](CCC(=O)O)C(=O)N[C@@H](Cc1ccc2ccccc2c1)C(=O)N[C@@H](CC(C)C)C(=O)N[C@@H](CCCNC(=N)N)C(=O)N[C@@H](CCCCN)C(=O)N[C@@H](CCCCN)C(=O)N[C@@H](CC(C)C)C(=O)N[C@@H](CCC(N)=O)C(=O)N[C@@H](CC(=O)O)C(=O)N[C@H](C(=O)N[C@@H](Cc1c[nH]cn1)C(=O)N[C@@H](CC(N)=O)C(=O)N[C@@H](Cc1ccccc1)C(N)=O)C(C)C)C(C)C` [SEQ ID NO: 52, [Nle^8, β-hAla^18,2-Nal^23] hPTH (1-34)-NH2] (H-SVSEIQL[Nle]HNLGKHLNS[β3hA]ERVE[2Nal]LRKKLQDVHNF-NH2), the “Selectivity hPTHR-2/hPTHR-1” value in test [1] (Table 4 comparison data, ratio of EC50 values) was 215.

In the case of [Aib]VSEIQL[Nle]HNLGKHLNS[β3hI]ERVE[1Nal]LRKLLQDV-NH2 [[Aib^1, Nle^8, β-hIle^18, 1-Nal^23, Leu^27] hPTH (1-31)-NH2], the “hPTHR-1 EC50 (nM), CRE-luciferase reporter gene assay” value in test [2] amounted to 0.05 nM. The “hPTHR-2 EC50 (nM), luciferase reporter gene assay” value in test [3] was found to be 18 nM.

Take SVSEIQL[Nle]HNLGKHLNS[β3hI]ERVE[1Nal]LRKLLQDV-NH2 [[Nle^8, β-hIle^18, 1-Nal^23, Leu^27] hPTH-(1-31)-NH2]: the “hPTHR-1 EC50 (nM), CRE-luciferase reporter gene assay” value in test [2] amounted to 0.09 nM. In addition, the “hPTHR-2 EC50 (nM), luciferase reporter gene assay” value in test [3] was 32 nM.

The values above are taken from patent US20110195900A1, “PEPTIDIC PTH RECEPTOR AGONISTS” (FERRING B.V., priority 2008, published 2011).
